Assay results: patent publication US12679838B2, “Aromatic compound and application thereof in antitumor drug” (Shanghai Zheye Biotechnology Co., Ltd., priority 2020, dated 2026)
Where two headings read alike, the source gives them in different places.

Assays:
NCI-H358 cells = assay: Cell proliferation inhibitory activity, NCI-H358 (CellTiter-Glo); assay type: cell-based; settings: for cell proliferation inhibitory activity, R-configuration compared with corresponding S-configuration compound (in words): H358
Experimental: (§1) NCI-H358 cells in an exponential growth phase were digested with trypsin-EDTA and plated in a 96-well plate at 2000-3000 cells per well and incubated overnight at 37° C. with 5% CO2. A test compound was prepared as a mother liquor with DMSO, diluted with a RPMI 1640 growth medium in a concentration gradient and added to the 96-well plate and incubated for 72 hours at 37° C. in a 5% CO2 incubator. After incubation, an equal volume of CellTiter-Glo detection reagent was added to each well and incubated after shaking, and a chemiluminescence value was measured by a microplate reader, and the IC50 value for the inhibition of NCI-H358 cell proliferation was fitted and calculated by GraphPad Prism software.
The inhibitory effect of the compounds on the proliferation activity of H358 cells was tested with reference to the method of the biological test 2, and the results were as follows:
The inhibitory effect of the compounds on the proliferation activity of NCI-H358 cells was tested with reference to the method of the biological test 2, and the results were as follows.

[1] = Two-week repeated dosing safety test; assay type: in vivo; settings: SD rats, 400 mg/kg oral gavage once a day, 14 days
Experimental: Samples for testing: compound 3-29; compound 3-16M; and compound 3-32.
Animal species and number: SD rats; 6 rats per group (half male and half female).
(§2) Mode of administration: oral gavage.
Animal grouping and administration dose: solvent blank group and compound 3-29 group (400 mg/kg); compound 3-16M group (400 mg/kg); and compound 3-32 group (400 mg/kg).
Administration frequency: once a day, and administration for 14 days.
After administration, a toxic reaction was observed by cages for 4 hours, and detailed clinical observation was made on animals with obvious abnormal performances. General clinical observation included twice a day during the duration of test (once in the morning and once in the afternoon). Death, morbidity, respiration, secretion, faeces, diet, drinking water, and other conditions were observed and weight changes of the rats during administration were recorded. Detailed clinical observations included but were not limited to behavioral activity, skin, coat, eyes, ears, nose, abdomen, external genitals, anus, extremities, feet, and respiration. After the administration, the animals in each group were euthanized, and all the animals were dissected and observed grossly.

[2] = system: NCI-H358 tumor cells xenograft; assay: Pharmacodynamics test of xenograft tumor model of NCI-H358 in nude mice; assay type: in vivo, Balb/c Nude mice; settings: 100 mg/kg; for Tumor suppression ratio (%): NCI-H358 xenograft, QD×15 days, oral gavage
Experimental: Animal species and number: Balb/c Nude; 6 animals per group.
Samples for testing: compound 3-2M, compound 3-16M, TM-1, TM-3, and AMG510 (obtained by purchasing).
Test groups: blank solvent control group; compound 3-2M (100 mg/kg, QD×15 days), compound 3-16M (100 mg/kg, QD×15 days), TM-1 (100 mg/kg, QD×15 days), TM-3 (100 mg/kg, QD×15 days); and AMG510 (100 mg/kg, QD×15 days).
Animal model establishment: NCI-H358 tumor cells at logarithmic phase were cultured and collected in vitro, and inoculated subcutaneously on the right side of the back of nude mice at a quantity of 5×10^6 cells/each, and the tumor-bearing nude mice were randomly grouped when the tumor volume grew to 150-300 mm^3. Subsequently, each group of animals was administered and the day of the first administration was defined as day 1 of the test.
(§3) Administration route and frequency: oral gavage; and once a day.
(§4) General state observation: observation time and frequency: once a day; observation index or content: including, but is not limited to local administration, appearance and signs, general behavioral activities, mental status, death and other abnormal manifestations of the animals. The animals were euthanized at the end of the test.
(§5) Tumor volume calculation: V=½×long diameter× short diameter^2 (mm^3). Tumor growth inhibition ratio TGI (%) was used to evaluate the tumor suppressive efficacy of the compounds. TGI (%)=[1-(mean tumor volume at the end of administration of the treatment group−mean tumor volume at the beginning of administration of the treatment group)/(mean tumor volume at the end of administration of the control group−mean tumor volume at the beginning of administration of the control group)]×100%.

NCI-H358 = assay: Cell proliferation inhibitory activity of NCI-H358, 3D model test (agarose colony formation); assay type: cell-based; settings: for IC50: Homo sapiens, NCI-H358, agarose gel, colony formation, NBT staining
Experimental: 100 μl of high concentration agarose gel was spread in a 96-well plate as a bottom agarose gel layer; low concentration agarose and growth medium containing cells were mixed and spread on the bottom agarose gel layer, cooled and solidified and incubated overnight at 37° C.; a test compound was prepared into a mother liquor with DMSO, diluted with a RPMI 1640 growth medium in a concentration gradient, and the gradient diluted solution of the compound to be tested with different concentrations was added into 96 wells containing upper agarose gel cells, and solvent control wells were set and placed in a carbon dioxide incubator for culture. During the period, the drug-containing medium was changed to observe the cell growth. After the culture, the cells were stained with NBT, the number of colony formation was counted, and the IC50 value of the compound inhibiting cell proliferation was obtained.

hERG potassium channel = biological target: T1, hERG potassium channel (Homo sapiens, UniProt Q12809); assay: hERG potassium channels, electrophysiological manual patch clamp; assay type: cell-based
T1 construct: expressed in transfected cells; host or cells: HEK-293
Experimental: Preparation of test solution: the solution of test compound 3-16M was subjected to conventional ultrasound and oscillation to ensure complete dissolution of the compound.
Cell culture: the cell lines were derived from HEK-293 cells which overexpressed hERG potassium channel. The cells were cultured in a 5% CO2 incubator at 37°. When a cell density reached 80% of a culture dish, the cells were pre-washed with a phosphate buffer solution (PBS), and then digested with trypsin/EDTA, and a cell culture medium was added to stop digestion. The cells were gently blown with a pipette and transferred to a centrifuge tube, centrifuged at 1000 rpm, the supernatant was poured out, and then the cell culture medium was added. The cells were gently blown and mixed evenly, then transferred to a culture dish for subculture, or the cells were dripped on a round slide and placed in a culture dish for the cells to adhere to the wall for test.
The hERG IC50 value of the compound calculated by electrophysiology manual patch clamp system test was as follows: […]

MIA PaCa-2 cells = assay: Cell proliferation inhibitory activity, MIA PaCa-2 (CellTiter-Glo); assay type: cell-based
Experimental: as §1, with “MIA PaCa-2” for “NCI-H358”, “DMEM” for “RPMI 1640”

[3] = Preliminary safety test of compounds, 3-day oral gavage; settings: mouse, in vivo, Balb/c, tentatively suggested, read-out: maximum tolerated dose
Experimental: Samples for testing: compound 3-2M and compound 3-6M.
Animal species and number: Balb/c; 3 animals per group.
as §2
Animal grouping and administration dose: solvent blank group and compound 3-2M group (400 mg/kg, 800 mg/kg); compound 3-6M group (400 mg/kg, 800 mg/kg).
Administration frequency: once a day, and administration for 3 days.

[4] = system: MIA-paca-2 cells subcutaneous transplanted tumor; assay: Pharmacodynamic test of CDX model in nude mice; assay type: in vivo; settings: 10 mg/kg, QD×15 days
Experimental: Animal species and number: Balb/c Nude.
Test groups: blank solvent control group; compound 3-2M (10 mg/kg, QD×15 days), and compound 3-6M (10 mg/kg, QD×15 days).
Animal model establishment: MIA-paca-2 cells were cultured in vitro and inoculated subcutaneously on the right side of the back of nude mice, and the tumor-bearing nude mice were randomly grouped. Subsequently, each group of animals was administered and the day of the first administration was defined as day 1 of the test.
as §3
as §4, with “but” for “but is”
as §5, with “diameter×short” for “diameter× short”

[5] = Analysis of therapeutic safety window; settings: in vivo, oral, 3 days
[6] = system: Langendorff isolated perfused heart; assay: In vitro isolated heart perfusion test (Langendorff); design: species or system Guinea pig; settings: 3.3 μM
Source text: Test method: influences of Langendorff isolated perfused heart test compounds on electrocardiogram, wherein the test method used in this test was as follows: [table] Test compounds: compound 3-2M and the compound in Example 41 of patent WO2018217651A1 (i.e., AMG510).

[7] = Homo sapiens, NCI-H358, 72 h, biological test 2, NCI-H358 cells, 72 hours, read-out: Cell proliferation inhibitory activity IC50 value of H358

T1 sequence (Q12809 whole entry): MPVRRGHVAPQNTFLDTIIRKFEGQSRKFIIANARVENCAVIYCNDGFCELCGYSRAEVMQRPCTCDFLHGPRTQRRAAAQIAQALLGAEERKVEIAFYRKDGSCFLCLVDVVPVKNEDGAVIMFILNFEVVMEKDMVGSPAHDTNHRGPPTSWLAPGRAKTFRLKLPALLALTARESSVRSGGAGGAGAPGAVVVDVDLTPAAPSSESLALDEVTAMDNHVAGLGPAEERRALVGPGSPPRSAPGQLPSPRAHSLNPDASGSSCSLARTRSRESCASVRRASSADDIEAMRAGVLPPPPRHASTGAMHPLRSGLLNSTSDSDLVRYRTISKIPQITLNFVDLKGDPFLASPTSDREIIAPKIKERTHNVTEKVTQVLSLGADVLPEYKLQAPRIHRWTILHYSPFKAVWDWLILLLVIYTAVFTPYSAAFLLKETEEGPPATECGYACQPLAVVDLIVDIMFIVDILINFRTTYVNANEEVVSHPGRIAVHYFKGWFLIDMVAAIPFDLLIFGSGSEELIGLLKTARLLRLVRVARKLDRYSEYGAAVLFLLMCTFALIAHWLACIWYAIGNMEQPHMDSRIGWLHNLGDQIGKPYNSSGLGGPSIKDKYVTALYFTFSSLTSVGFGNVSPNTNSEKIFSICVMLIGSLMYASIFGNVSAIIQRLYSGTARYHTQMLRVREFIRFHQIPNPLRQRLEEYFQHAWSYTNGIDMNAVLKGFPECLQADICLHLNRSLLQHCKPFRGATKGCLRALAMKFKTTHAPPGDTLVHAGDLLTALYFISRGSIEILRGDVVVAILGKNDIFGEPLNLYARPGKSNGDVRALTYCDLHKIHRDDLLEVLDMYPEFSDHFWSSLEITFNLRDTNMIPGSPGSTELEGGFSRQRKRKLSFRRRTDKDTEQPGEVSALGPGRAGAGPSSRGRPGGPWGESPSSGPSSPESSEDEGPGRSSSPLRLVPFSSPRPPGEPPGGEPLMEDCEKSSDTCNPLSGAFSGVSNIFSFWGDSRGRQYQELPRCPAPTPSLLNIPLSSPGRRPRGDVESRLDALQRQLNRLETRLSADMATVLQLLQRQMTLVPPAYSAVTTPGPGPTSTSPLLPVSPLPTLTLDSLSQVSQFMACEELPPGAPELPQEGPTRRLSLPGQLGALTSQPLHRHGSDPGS

Row | SMILES | cell proliferation inhibitory activity against KRAS G12C mutant cells NCI-H358 (in words) (NCI-H358 cells) | general observation: water intake, feeding, activity, body weight [1] | IC50 (NCI-H358 cells; [7]) | inhibition of subcutaneous transplanted tumor growth of lung cancer NCI-H358 cells in nude mice (in words) [2] | Tumor suppression ratio (%) [2] | cell proliferation inhibitory activity against NCI-H358, 3D model (in words) (NCI-H358) | IC50 (NCI-H358) | cell proliferation inhibitory activity, R-configuration compared with corresponding S-configuration compound (in words) (NCI-H358 cells) | MTD at 3 days [3] | inhibition of subcutaneous transplanted tumor growth of pancreatic cancer MIA-paca-2 cells in nude mice (in words) [4] | toxicity during administration in CDX test (food and water intake, activities, weight) [4] | therapeutic safety window: ratio of toxic dose to onset dose [5] | further results
1 | C=CC(=O)N1CCN(c2nc(=O)n(-c3c(CN(C)C)ccnc3C(C)C)c3nc(-c4ccccc4C=O)c(Cl)cc23)[C@@H](C)C1 [Compound 3-32] | significant cell proliferation inhibitory activities | no obvious abnormal performance |  |  |  |  |  |  |  |  |  |  | IC50 (NCI-H358 cells; Homo sapiens, NCI-H358, biological test 7, NCI-H358 cells, read-out: Cell proliferation inhibitory activity IC50 value of NCI-H358): < 50 nM
2 | [2H]C(=O)c1ccccc1-c1nc2c(cc1Cl)c(N1CCN(C(=O)C=C)C[C@@H]1C)nc(=O)n2-c1c(C)ccnc1C(C)C (atropisomer, axis not shown) [Compound 3-16M] | significant cell proliferation inhibitory activities | no obvious abnormal performance | ≤ 50 nM | significant inhibitory effects | ++++ (“++++” represents that the tumor suppression ratio is greater than 140%) | significant cell proliferation inhibitory activities | 1.1 nM |  |  |  |  |  | IC50 (hERG potassium channel; HEK-293 cells overexpressing hERG): > 100000 nM; IC50 (hERG potassium channel; human, HEK-293 cells overexpressing hERG potassium channel, test concentration range): > 100000 nM
3 | C=CC(=O)N1CCN(c2nc(=O)n(-c3c(C)ccnc3C(C)C)c3nc(-c4c(F)cccc4C=O)c(Cl)cc23)[C@@H](C)C1 (single isomer, unassigned) [Compound 3-6M] | significant cell proliferation inhibitory activities |  | ≤ 50 nM |  |  |  |  | significantly better than that of the corresponding compound 3-6P | > 800 mg/kg | significant inhibition of subcutaneous transplanted tumor growth | showed no toxicity | greater than 80 times | cell proliferation inhibitory activity against KRAS G12C mutant cells MIA PaCa-2 (in words) (MIA PaCa-2 cells): significant cell proliferation inhibitory activities; IC50 (MIA PaCa-2 cells; Homo sapiens, MIA PaCa-2 cells, 72 hours): < 50 nM
4 | C=CC(=O)N1CCN(c2nc(=O)n(-c3c(C)ccnc3C(C)C)c3nc(-c4ccccc4C=O)c(Cl)cc23)[C@@H](C)C1 [Compound 3-2M] |  |  |  | significant inhibitory effects | ++++ (“++++” represents that the tumor suppression ratio is greater than 140%) | significant cell proliferation inhibitory activities | 1.8 nM | significantly better than that of the corresponding compound 3-2P | > 800 mg/kg | significant inhibition of subcutaneous transplanted tumor growth | showed no toxicity | greater than 80 times | cell proliferation inhibitory activity against H358, R-configuration relative to S-configuration compound (fold) (NCI-H358 cells; 3-2M versus 3-2P): more than five times; IC50 (NCI-H358 cells; biological test 2, NCI-H358 cells, 72 hours, read-out: Cell proliferation inhibitory activity IC50 value of H358): ≤ 50 nM; effect on the heart rate of the isolated heart (in words) [6]: no obvious effect on the heart rate; HR (heart rate) change % ([6]; Guinea pig isolated heart): A (“A” represents that the heart rate decreases by less than 5%)
5 | C=CC(=O)N1CCN(c2nc(=O)n(-c3c(CF)ccnc3C(C)C)c3nc(-c4ccccc4C=O)c(Cl)cc23)[C@@H](C)C1 [Compound 3-29] | significant cell proliferation inhibitory activities | no obvious abnormal performance |  |  |  |  |  |  |  |  |  |  | IC50 (NCI-H358 cells; Homo sapiens, biological test 7, NCI-H358 cells, read-out: Cell proliferation inhibitory activity IC50 value of NCI-H358): < 50 nM
